Activity calls are given as the source filed them. No cut-off for these calls is given here.
Columns and labels:
[1] = Oral bioavailability in Sprague-Dawley rat at 10 mg/kg; type: ADME, organism-based; conditions: in vivo
[2] = target: Platelet-derived growth factor receptor alpha (Homo sapiens) (UniProt P16234); test: Inhibition of human PDGFRalpha at 0.1 uM relative to control
[3] = target: Macrophage colony-stimulating factor 1 receptor (Homo sapiens) (UniProt P07333); test: Inhibition of human CSF1R at 0.1 uM relative to control
[4] = test system: Proto-oncogene tyrosine-protein kinase receptor Ret (Homo sapiens), P07949 [V804L]; test: Inhibition of human RET V804L mutant at 0.1 uM relative to control
[5] = target: Tyrosine-protein kinase Fgr (Homo sapiens) (UniProt P09769); test: Inhibition of human FGR at 0.1 uM relative to control
[6] = test system: Receptor-type tyrosine-protein kinase FLT3 (Homo sapiens), P36888 [D835Y]; test: Inhibition of human FLT3 D835Y mutant at 0.1 uM relative to control
[7] = test system: Proto-oncogene tyrosine-protein kinase receptor Ret (Homo sapiens), P07949 [Y791F]; test: Inhibition of human RET Y791F mutant at 0.1 uM relative to control
[8] = target: Angiopoietin-1 receptor (Homo sapiens) (UniProt Q02763); test: Inhibition of human TEK at 0.1 uM relative to control
[9] = test system: Platelet-derived growth factor receptor alpha (Homo sapiens), P16234 [T674I]; test: Inhibition of human PDGFRA T674I mutant at 0.1 uM relative to control
[10] = target: Tyrosine-protein kinase BTK (Homo sapiens) (UniProt Q06187); test: Inhibition of human BTK at 0.1 uM relative to control
Sequence of Tyrosine-protein kinase BTK (Homo sapiens) (Q06187 whole entry): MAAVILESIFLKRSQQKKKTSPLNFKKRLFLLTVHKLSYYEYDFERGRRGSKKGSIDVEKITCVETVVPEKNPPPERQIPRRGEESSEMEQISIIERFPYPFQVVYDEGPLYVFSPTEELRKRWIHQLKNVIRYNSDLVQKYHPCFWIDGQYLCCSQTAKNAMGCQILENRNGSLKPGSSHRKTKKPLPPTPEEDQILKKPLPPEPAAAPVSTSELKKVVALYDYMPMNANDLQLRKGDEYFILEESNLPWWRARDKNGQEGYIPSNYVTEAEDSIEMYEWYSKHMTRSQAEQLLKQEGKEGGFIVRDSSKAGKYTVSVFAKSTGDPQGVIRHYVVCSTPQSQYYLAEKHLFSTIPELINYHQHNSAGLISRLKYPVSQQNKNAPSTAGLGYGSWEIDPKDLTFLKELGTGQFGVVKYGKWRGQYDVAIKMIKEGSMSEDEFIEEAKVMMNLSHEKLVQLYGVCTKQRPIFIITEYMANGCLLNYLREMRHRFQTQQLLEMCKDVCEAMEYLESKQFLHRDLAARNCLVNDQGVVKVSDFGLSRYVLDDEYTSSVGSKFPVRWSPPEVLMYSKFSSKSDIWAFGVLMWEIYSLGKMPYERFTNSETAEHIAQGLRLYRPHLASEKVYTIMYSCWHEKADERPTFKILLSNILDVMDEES

[11] = target: Tyrosine-protein kinase HCK (Homo sapiens) (UniProt P08631); test: Inhibition of human HCK at 0.1 uM relative to control
[12] = target: Aurora kinase C (Homo sapiens) (UniProt Q9UQB9); test: Inhibition of human AURKC at 0.1 uM relative to control
[13] = target: Serine/threonine-protein kinase B-raf (Homo sapiens) (UniProt P15056); test: Inhibition of human BRAF at 0.1 uM relative to control
[14] = target: Serine/threonine-protein kinase Nek1 (Homo sapiens) (UniProt Q96PY6); test: Inhibition of human NEK1 at 0.1 uM relative to control
[15] = test system: RAF proto-oncogene serine/threonine-protein kinase (Homo sapiens), P04049 [Y340D,Y341D]; test: Inhibition of human RAF1 Y340D/Y341D double mutant at 0.1 uM relative to control
Sequence of RAF proto-oncogene serine/threonine-protein kinase (Homo sapiens), P04049 [Y340D,Y341D] (P04049 whole entry Y340D/Y341D): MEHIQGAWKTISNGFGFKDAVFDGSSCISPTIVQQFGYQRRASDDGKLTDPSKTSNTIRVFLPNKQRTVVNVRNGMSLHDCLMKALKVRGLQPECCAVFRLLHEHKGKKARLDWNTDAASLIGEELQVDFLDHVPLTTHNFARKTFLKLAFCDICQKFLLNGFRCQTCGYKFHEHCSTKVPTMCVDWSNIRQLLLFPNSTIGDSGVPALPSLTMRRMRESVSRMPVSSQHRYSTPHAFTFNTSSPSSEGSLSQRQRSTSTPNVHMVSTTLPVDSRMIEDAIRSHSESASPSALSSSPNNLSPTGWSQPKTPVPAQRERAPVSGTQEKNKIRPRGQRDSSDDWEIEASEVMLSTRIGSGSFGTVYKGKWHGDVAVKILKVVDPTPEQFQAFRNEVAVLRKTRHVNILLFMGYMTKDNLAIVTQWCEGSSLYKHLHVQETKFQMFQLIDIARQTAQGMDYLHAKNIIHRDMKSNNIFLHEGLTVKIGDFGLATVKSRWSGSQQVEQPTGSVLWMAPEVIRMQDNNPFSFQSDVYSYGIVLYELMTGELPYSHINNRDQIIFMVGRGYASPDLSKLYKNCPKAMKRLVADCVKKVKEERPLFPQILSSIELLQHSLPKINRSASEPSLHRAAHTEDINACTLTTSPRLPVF

[16] = test system: Platelet-derived growth factor receptor alpha (Homo sapiens), P16234 [D842V]; test: Inhibition of human PDGFRA D842V mutant at 0.1 uM relative to control
[17] = target: Inhibitor of nuclear factor kappa-B kinase subunit epsilon (Homo sapiens) (UniProt Q14164); test: Inhibition of human IKKepsilon at 0.1 uM relative to control
[18] = target: Serine/threonine-protein kinase Chk1 (Homo sapiens) (UniProt O14757); test: Inhibition of human CHK1 at 0.1 uM relative to control
[19] = target: AMP-activated protein kinase, AMPK (Homo sapiens) (UniProt P54646+O43741+P54619+Q9UGJ0+Q9Y478+Q13131+Q9UGI9); test: Inhibition of human AMPK A1/B1/G1 at 0.1 uM relative to control; type: protein-complex assay
[20] = target: Mitogen-activated protein kinase 8 (Homo sapiens) (UniProt P45983); test: Inhibition of human MAPK8 at 0.1 uM relative to control
[21] = target: Mitogen-activated protein kinase 14 (Homo sapiens) (UniProt Q16539); test: Inhibition of human MAPK14 at 0.1 uM relative to control
[22] = target: Fibroblast growth factor receptor 1 (Homo sapiens) (UniProt P11362); test: Inhibition of human FGFR1 at 0.1 uM relative to control
[23] = target: Ribosomal protein S6 kinase alpha-2 (Homo sapiens) (UniProt Q15349); test: Inhibition of human RSK3 at 0.1 uM relative to control
[24] = target: Dual specificity protein kinase CLK1 (Homo sapiens) (UniProt P49759); test: Inhibition of human CLK1 at 0.1 uM relative to control
[25] = target: Ribosomal protein S6 kinase alpha-5 (Homo sapiens) (UniProt O75582); test: Inhibition of human MSK1 at 0.1 uM relative to control
[26] = target: Receptor tyrosine-protein kinase erbB-2 (Homo sapiens) (UniProt P04626); test: Inhibition of human HER2 at 0.1 uM relative to control
[27] = target: Ribosomal protein S6 kinase alpha-3 (Homo sapiens) (UniProt P51812); test: Inhibition of human RSK2 at 0.1 uM relative to control
[28] = target: Macrophage-stimulating protein receptor (Homo sapiens) (UniProt Q04912); test: Inhibition of human RON at 0.1 uM relative to control
[29] = target: Tyrosine-protein kinase JAK2 (Homo sapiens) (UniProt O60674); test: Inhibition of human JAK2 at 0.1 uM relative to control
Sequence of Tyrosine-protein kinase JAK2 (Homo sapiens) (O60674 whole entry): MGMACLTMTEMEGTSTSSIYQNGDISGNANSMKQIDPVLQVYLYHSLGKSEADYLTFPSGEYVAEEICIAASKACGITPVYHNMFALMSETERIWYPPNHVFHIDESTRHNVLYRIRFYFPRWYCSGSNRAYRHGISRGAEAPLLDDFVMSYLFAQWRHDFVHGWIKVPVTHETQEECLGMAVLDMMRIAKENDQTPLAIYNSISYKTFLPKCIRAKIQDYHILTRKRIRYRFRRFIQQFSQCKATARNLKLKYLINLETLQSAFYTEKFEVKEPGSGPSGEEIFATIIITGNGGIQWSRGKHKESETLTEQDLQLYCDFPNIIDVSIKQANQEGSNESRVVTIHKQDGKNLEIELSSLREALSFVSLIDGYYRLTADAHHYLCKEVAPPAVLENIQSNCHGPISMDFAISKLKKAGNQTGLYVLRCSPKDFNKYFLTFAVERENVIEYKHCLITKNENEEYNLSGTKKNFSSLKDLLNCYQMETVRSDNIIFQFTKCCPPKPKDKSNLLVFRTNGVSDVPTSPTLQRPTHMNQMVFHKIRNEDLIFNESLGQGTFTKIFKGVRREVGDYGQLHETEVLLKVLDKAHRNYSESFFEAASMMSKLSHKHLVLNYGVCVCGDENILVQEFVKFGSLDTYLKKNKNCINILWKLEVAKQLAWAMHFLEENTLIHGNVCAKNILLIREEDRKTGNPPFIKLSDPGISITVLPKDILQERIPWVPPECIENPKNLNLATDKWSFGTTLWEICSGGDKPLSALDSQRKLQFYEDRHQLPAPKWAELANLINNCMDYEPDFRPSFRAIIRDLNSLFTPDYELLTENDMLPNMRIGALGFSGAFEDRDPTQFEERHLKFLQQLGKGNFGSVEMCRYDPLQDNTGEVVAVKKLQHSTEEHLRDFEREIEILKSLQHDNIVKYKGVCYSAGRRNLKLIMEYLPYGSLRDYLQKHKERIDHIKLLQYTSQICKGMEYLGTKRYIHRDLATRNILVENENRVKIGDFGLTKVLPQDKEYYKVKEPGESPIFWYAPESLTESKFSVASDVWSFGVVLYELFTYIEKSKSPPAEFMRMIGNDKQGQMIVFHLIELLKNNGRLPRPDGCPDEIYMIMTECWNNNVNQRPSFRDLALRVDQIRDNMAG

[30] = target: Serine/threonine-protein kinase Nek2 (Homo sapiens) (UniProt P51955); test: Inhibition of human NEK2 at 0.1 uM relative to control
[31] = Volume of distribution at steady state in Sprague-Dawley rat at 2 mg/kg, iv; type: ADME, organism-based; conditions: in vivo, read-out: Vdss
[32] = Half life in ICR mouse at 10 mg/kg, po; type: ADME, organism-based; conditions: in vivo
[33] = Cmax in Sprague-Dawley rat at 10 mg/kg, po; type: ADME, organism-based; design: dose 10 mg/kg, route oral; conditions: in vivo
MV4-11 = test: Antitumor activity against human MV4-11 cells xenografted in nude mouse assessed as tumor growth inhibition at 10 mg/kg, po qd administered on day 1 to 5 measured during compound dosing; type: functional, organism-based
Mus musculus [34] = test: Antitumor activity against human MOLM13 cells xenografted in SCID mouse assessed as increase in survival at 10 mg/kg, po qd administered on day 1 to 5 relative to vehicle-treated control; type: functional, MOLM-13
Mus musculus [35] = test: Toxicity in nude mouse allografted with mouse 32D cells expressing FLT3 ITD D835Y mutant at 10 mg/kg/day, po administered 5 days on/2 days off schedule for 4 weeks measured daily during compound dosing; type: organism-based; conditions: in vivo
[36] = test system: Receptor-type tyrosine-protein kinase FLT3 (Homo sapiens), P36888 [UNDEFINED MUTATION]; conditions: MOLM-13
Description: Inhibition of FLT3 ITD heterozygous mutant in human MOLM-13 cells assessed as cell growth inhibition after 72 hrs by MTS assay

[37] = target: Bcr/Abl fusion protein (Homo sapiens) (UniProt P00519+P11274); conditions: K562
Sequence of Bcr/Abl fusion protein (Homo sapiens) (P00519 whole entry, looked up, the tested form may be a part): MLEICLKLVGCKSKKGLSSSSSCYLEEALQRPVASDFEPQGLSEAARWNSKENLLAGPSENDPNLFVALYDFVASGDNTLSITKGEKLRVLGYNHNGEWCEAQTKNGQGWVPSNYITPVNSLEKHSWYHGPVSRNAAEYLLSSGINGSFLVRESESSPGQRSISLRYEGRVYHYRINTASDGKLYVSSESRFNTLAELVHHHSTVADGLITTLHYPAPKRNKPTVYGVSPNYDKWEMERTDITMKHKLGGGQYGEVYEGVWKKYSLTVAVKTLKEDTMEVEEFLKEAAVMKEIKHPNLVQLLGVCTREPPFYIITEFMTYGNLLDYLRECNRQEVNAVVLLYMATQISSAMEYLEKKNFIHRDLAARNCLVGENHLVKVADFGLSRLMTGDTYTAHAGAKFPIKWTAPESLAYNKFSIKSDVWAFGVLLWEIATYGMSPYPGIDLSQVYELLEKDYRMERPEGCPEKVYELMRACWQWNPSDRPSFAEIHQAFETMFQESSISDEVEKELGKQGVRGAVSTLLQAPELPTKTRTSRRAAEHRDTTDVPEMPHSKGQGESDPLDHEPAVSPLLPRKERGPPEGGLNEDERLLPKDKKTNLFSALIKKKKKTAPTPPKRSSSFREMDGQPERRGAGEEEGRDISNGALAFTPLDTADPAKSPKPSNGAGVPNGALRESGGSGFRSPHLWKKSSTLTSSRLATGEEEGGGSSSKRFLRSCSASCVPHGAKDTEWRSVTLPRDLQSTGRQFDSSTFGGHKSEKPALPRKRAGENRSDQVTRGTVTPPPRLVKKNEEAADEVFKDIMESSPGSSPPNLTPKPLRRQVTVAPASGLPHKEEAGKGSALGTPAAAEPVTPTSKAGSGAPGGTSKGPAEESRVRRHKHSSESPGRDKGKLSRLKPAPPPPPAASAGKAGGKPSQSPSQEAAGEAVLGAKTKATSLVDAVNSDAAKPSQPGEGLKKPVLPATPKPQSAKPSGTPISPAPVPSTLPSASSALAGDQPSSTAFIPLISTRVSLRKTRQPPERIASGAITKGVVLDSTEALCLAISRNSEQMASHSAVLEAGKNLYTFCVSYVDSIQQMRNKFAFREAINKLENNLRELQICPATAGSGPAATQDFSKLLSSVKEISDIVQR
Sequence of Bcr/Abl fusion protein (Homo sapiens) (P11274 whole entry, looked up, the tested form may be a part): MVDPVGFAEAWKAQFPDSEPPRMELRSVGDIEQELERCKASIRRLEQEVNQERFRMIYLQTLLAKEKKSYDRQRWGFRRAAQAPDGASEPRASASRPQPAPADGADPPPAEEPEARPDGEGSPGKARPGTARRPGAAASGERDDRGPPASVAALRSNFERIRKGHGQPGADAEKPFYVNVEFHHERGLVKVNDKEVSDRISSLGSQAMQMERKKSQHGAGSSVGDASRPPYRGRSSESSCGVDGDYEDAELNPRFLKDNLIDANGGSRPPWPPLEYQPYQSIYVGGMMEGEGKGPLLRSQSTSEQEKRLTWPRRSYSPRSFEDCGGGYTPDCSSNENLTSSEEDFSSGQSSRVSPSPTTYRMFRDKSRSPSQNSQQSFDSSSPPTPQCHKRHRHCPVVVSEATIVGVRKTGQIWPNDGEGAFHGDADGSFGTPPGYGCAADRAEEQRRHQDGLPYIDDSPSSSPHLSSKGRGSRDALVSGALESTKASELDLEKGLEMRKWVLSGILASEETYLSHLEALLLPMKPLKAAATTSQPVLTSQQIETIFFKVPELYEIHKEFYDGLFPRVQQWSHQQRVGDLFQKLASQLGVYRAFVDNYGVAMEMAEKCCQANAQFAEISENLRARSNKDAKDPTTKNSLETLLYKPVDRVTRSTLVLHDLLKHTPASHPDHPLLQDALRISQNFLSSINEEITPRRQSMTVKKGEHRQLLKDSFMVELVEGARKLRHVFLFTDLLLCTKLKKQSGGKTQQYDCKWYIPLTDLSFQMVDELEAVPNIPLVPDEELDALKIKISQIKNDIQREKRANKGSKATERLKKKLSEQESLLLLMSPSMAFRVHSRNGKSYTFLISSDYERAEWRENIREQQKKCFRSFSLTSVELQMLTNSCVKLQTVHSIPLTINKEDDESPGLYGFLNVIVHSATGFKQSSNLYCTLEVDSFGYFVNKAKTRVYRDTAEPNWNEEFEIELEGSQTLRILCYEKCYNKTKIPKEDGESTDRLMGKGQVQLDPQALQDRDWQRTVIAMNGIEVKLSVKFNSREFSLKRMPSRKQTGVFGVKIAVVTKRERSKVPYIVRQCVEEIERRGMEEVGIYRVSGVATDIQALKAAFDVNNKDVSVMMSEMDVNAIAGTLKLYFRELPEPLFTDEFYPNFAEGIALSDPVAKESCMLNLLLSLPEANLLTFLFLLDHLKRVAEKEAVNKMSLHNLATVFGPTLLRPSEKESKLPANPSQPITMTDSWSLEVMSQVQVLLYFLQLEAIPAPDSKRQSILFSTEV
Description: Inhibition of wild type BCR/ABL in FLT3 deficient human K562 cells assessed as cell growth inhibition after 72 hrs by MTS assay

[38] = target: Vascular endothelial growth factor receptor 2 (Homo sapiens, UniProt P35968); conditions: 0.1 uM
Description: Inhibition of human KDR at 0.1 uM relative to control

[39] = test system: Receptor-type tyrosine-protein kinase FLT3 (Homo sapiens), P36888 [D835F]
animal or person = conditions: Mus musculus, 32D, po, read-out: TGI

CCc1cc(NC(=O)Nc2ccc(-c3cnc(Nc4cc(N5CCN(CC)CC5)nc(C)n4)s3)cc2)no1
bioavailability [1]: 20%
inhibition [2]: 98%
inhibition [3]: 94%
inhibition [4]: 65%
inhibition [5]: 89%
inhibition [6]: 87%
inhibition [7]: 86%
inhibition [8]: 61%
inhibition [9]: 46%
inhibition [10]: 46%
inhibition [11]: 45%
inhibition [12]: 45%
inhibition [13]: 36%
inhibition [14]: 23%
inhibition [15]: 21%
inhibition [16]: 21%
inhibition [17]: 18%
inhibition [18]: 17%
inhibition [19]: 16%
inhibition [20]: 15%
inhibition [21]: 10%
inhibition [22]: 10%
inhibition [23]: 7%
inhibition [24]: 5%
inhibition [25]: 0%
inhibition [26]: 0%
inhibition [27]: -1%
inhibition [28]: -3%
inhibition [29]: -3%
inhibition [30]: -4%
Vd [31]: 8.2 L/kg
half-life [32]: 1.8 h
Cmax [33]: 122 ng/mL
TGI (MV4-11): Active
Activity (Mus musculus [34]): 45%
Activity (Mus musculus [35]): Non-toxic
GI50 [36]: 2 nM
GI50 [37]: 190 nM
inhibition [38]: 85%
GI50 [39]: 38 nM
inhibition in vivo at 10 mg/kg/day (animal or person): 68%

From ChEMBL document CHEMBL3593229, “Identification of a potent 5-phenyl-thiazol-2-ylamine-based inhibitor of FLT3 with activity against drug resistance-conferring point mutations” (Eur J Med Chem, 2015)
